Assay results reported in patent US8133849B2, “Herbicidal compounds” (Syngenta Limited, priority 2007, dated 2012).

How the values were obtained:
Test in all cases: Example B2 herbicidal action, post-emergence, pots in glasshouse, damage score 0-10
Format in all cases: in vivo
Settings in all cases: application post-emergence, rate 1000 g/ha, evaluated after 13 days
Amaranthus retroflexus = test system: Amaranthus retroflexus
How it was run: (§1)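 Evaluation took place 13 days post-spray. Treatment used an acetone/water (50:50), 0.5% Tween 20 formulation applied to 8-day-old potted plants, held at 24/16 °C with 14 h light, 65% humidity and twice-daily watering.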

Solanum nigrum = test system: Solanum nigrum
How it was run: as §1

Ipomea hederaceae = test system: Ipomea hederaceae
How it was run: as §1

Echinochloa crus-galli = test system: Echinochloa crus-galli
How it was run: as §1

Setaria faberi = test system: Setaria faberi
How it was run: as §1

Structure (SMILES)	AMARE damage score (10=total damage to plant; 0=no damage to plant) (Amaranthus retroflexus)	SOLNI damage score (10=total damage to plant; 0=no damage to plant) (Solanum nigrum)	IPOHE damage score (10=total damage to plant; 0=no damage to plant) (Ipomea hederaceae)	ECHCG damage score (10=total damage to plant; 0=no damage to plant) (Echinochloa crus-galli)	SETFA damage score (10=total damage to plant; 0=no damage to plant) (Setaria faberi)
O=S1(=O)C(c2c(Cl)ccc(Cl)c2C(F)(F)F)=C(O)c2nccnc2N1CC(F)F [Compound D27]	9	8	7	7	8
CSC(=O)OC1=C(c2c(Cl)cccc2C(F)(F)F)S(=O)(=O)N(CC(F)F)c2nccnc21 [Compound C129]	10	10	9	9	9
CC(C)C(=O)OC1=C(c2ccccc2SC(F)(F)F)S(=O)(=O)N(CC(F)F)c2nccnc21 [Compound C18]	9	3	6	1	0
CCOC(=O)c1ccc(C(F)(F)F)nc1C1=C(OC(=O)SC)c2nccnc2N(CCC(F)F)S1(=O)=O [Compound C139, 2-[1-(3,3-difluoro-propyl)-4-methylsulfanylcarbonyloxy-2,2-dioxo-1,2-dihydro-2-λ-6-thia-1,5,8-triaza-naphthalen-3-yl]-6-trifluoromethyl-nicotinic acid ethyl ester]	0	0	1	0	3
CCN1c2nccnc2C(OC(=O)C(C)(C)C)=C(c2ccccc2C(F)(F)F)S1(=O)=O [Compound C64]	4	5	6	5	3
CCN1c2nccnc2C(O)=C(c2ccccc2[N+](=O)[O-])S1(=O)=O [Compound D34]	0	1	2	0	1
CCN1c2nccnc2C(OC(=O)C(C)C)=C(c2ccc(Cl)c(Cl)c2)S1(=O)=O [Compound C26]	9	0	0	0	0
CCN1c2nccnc2C(OC(=O)C(C)(C)C)=C(c2c(Cl)ccc(Cl)c2Cl)S1(=O)=O [Compound C72]	9	10	10	6	1
CC(C)(C)C(=O)OC1=C(c2c(F)ccc(Cl)c2Cl)S(=O)(=O)N(CC(F)F)c2nccnc21 [Compound C20]	10	10	10	8	0
CC(C)(C)C(=O)OC1=C(c2c(F)cccc2C(F)(F)F)S(=O)(=O)N(CC(F)F)c2nccnc21 [Compound C78]	4	6	3	4	3
CC(C)C(=O)OC1=C(c2ccccc2C#N)S(=O)(=O)N(CC(F)F)c2nccnc21 [Compound C128]	7	9	8	0	0
CCN1c2nccnc2C(O)=C(c2cccc(Cl)c2Cl)S1(=O)=O [Compound D49]	4	8	6	1	1
CC(C)(C)C(=O)OC1=C(c2cc(C(F)(F)F)ccc2Br)S(=O)(=O)N(CC(F)F)c2nccnc21 [Compound C80]	10	10	10	6	0
CC(C)C(=O)OC1=C(c2c(C(F)(F)F)cccc2C(F)(F)F)S(=O)(=O)N(CC(F)F)c2nccnc21 [Compound C79]	9	9	9	7	6
C#CCN1c2nccnc2C(OC(=O)SCC)=C(c2c(Cl)ccc(Cl)c2C(F)(F)F)S1(=O)=O [Compound C85]	7	10	9	7	6
CC(C)C(=O)OC1=C(c2cc(C(F)(F)F)ccc2Cl)S(=O)(=O)N(CC(Cl)Cl)c2nccnc21 [Compound C115]	8	9	6	1	5
CCN1c2nccnc2C(OC(=O)C(C)C)=C(c2ccccc2SC(F)(F)F)S1(=O)=O [Compound C19, isobutyric acid 1-ethyl-2,2-dioxo-3-(2-trifluoromethyl-sulfanyl-phenyl)-1,2-dihydro-2-λ-6-thia-1,5,8-triaza-naphthalen-4-yl ester]	9	6	8	4	0
COc1ccc(F)c(C2=C(OC(=O)C(C)(C)C)c3nccnc3N(CC(F)F)S2(=O)=O)c1Cl [Compound C25]	9	10	9	6	0
CCN1c2nccnc2C(O)=C(c2ccc(Cl)c(Cl)c2)S1(=O)=O [Compound D8]	9	2	0	0	0
CC(C)C(=O)OC1=C(c2ccc(Cl)cc2Cl)S(=O)(=O)N(CC(Cl)Cl)c2nccnc21 [Compound C116]	10	10	6	2	3
CCN1c2nccnc2C(O)=C(c2cccc(C(F)(F)F)c2Cl)S1(=O)=O [Compound D38]	9	8	5	1	0
COCN1c2nccnc2C(OC(=O)C(C)(C)C)=C(c2ccccc2SC(F)(F)F)S1(=O)=O [Compound C23]	5	6	4	4	3
CC(C)C(=O)OC1=C(c2c(C(F)(F)F)ccc(Cl)c2Cl)S(=O)(=O)N(CC(F)F)c2nccnc21 [Compound C134]	8	8	3	5	4
CCOC(=O)OC1=C(c2cc(C)ccc2C(F)(F)F)S(=O)(=O)N(CC(F)F)c2nccnc21 [Compound C147, carbonic acid 1-(2,2-difluoro-ethyl)-3-(5-methyl-2-trifluoromethyl-phenyl)-2,2-dioxo-1,2-dihydro-2-λ-6-thia-1,5,8-triaza-naphthalen-4-yl ester ethyl ester]	1	9	9	2	3
